From publication PMC10244169, “Psychedelics promote plasticity by directly binding to BDNF receptor TrkB” (Nature Neuroscience, 2023)

Assays:
TrkB (WT) dimerization = molecular target: T1, TrkB (WT) dimerization (Rattus norvegicus, UniProt Q63604); assay: Split-luciferase PCA of TrkB dimerization in N2a cells; type: cell-based; conditions: for TrkB dimerization (PCA), group mean (vehicle = 100): WT
T1 construct: expressed in transfected cells; host or cells: N2a
Procedure, shortened: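 N2a cells transiently co-transfected with split hGLuc-tagged rat TrkB pairs (WT/WT or Y433F/WT) for dimerization; Ketanserin, M100907 or TRKB.FC added 10 min before treatment. Luminescence read after injection of native coelenterazine ([…] final).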

[1] = tested on: dendritic arbor complexity of neuronal cultures; assay: Dendritogenesis (Sholl analysis) in neuronal cultures (WT and Y433F^+/−); type: cell-based, mouse; conditions: for Sholl analysis, Mean at distance from soma: fig 6h
Procedure, shortened: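 Some cultures were pretreated 10 min with TrkB.FC (200 ng ml^−1) or M100907 (100 nM), which stayed in the medium alongside cumulative psychedelic doses. Sholl analysis counted dendritic intersections every 5 μm from the soma.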

T1 sequence (Q63604 32-821): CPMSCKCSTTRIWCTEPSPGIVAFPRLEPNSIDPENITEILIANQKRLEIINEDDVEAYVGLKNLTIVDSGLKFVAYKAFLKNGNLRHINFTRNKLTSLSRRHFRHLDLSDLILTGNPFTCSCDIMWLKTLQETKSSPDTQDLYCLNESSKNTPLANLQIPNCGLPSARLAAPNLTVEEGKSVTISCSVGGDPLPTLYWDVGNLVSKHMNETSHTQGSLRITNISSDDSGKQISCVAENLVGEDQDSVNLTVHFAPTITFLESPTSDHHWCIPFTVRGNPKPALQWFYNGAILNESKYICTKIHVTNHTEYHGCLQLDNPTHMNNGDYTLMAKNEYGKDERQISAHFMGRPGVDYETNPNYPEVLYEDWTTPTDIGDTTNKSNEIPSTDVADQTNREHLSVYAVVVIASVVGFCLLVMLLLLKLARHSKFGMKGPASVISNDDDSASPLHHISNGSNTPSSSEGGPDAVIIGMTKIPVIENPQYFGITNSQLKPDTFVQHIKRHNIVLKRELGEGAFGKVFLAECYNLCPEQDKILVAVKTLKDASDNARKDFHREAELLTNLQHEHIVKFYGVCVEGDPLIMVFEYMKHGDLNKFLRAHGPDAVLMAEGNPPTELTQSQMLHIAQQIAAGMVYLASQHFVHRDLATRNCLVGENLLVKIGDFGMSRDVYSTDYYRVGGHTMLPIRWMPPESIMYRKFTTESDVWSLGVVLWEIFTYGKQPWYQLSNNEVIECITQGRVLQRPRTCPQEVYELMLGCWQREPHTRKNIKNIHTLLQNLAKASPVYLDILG
T1 sequence (Q63604 32-821): as above

`CN(C)CCc1c[nH]c2cccc(O)c12` [PSI, psilocin] was tested, and the TrkB dimerization (TrkB (WT) dimerization; WT TrkB, N2a cells, 1 nM to 1 µM) was “fast and long-lasting increase in dimerization”, the “TrkB dimerization (PCA), group mean (vehicle = 100)” value (shortened to “TrkB dimerization (PCA), group mean”) (TrkB (WT) dimerization; 1nM) was 146 and the “TrkB dimerization (PCA), group mean” value (TrkB (WT) dimerization; 10nM) was 133.7. The “TrkB dimerization (PCA), group mean” value (TrkB (WT) dimerization; 100nM) was 150.6, the “TrkB dimerization (PCA), group mean” value (TrkB (WT) dimerization; 1uM) was 166.1 and the “6g: Mean (dendritogenesis, Sholl analysis)” value ([1]; WT neurons, vehicle mean 32.96) was 62.5. For the same molecule, the “6g: Mean Diff. (vehicle vs. treatment), Bonferroni's multiple comparisons test” value ([1]; WT:vehicle minus WT:treatment) was -29.54, the “6g: Mean (dendritogenesis, Sholl analysis)” value ([1]; Y433F+/- neurons, vehicle mean 44.44) was 31.05 and the “6g: Mean Diff. (vehicle vs. treatment), Bonferroni's multiple comparisons test” value ([1]; Y433F+/-:vehicle minus Y433F+/-:treatment) was 13.39. The dendritic arbor complexity ([1]; cultures from WT mice) was “enhance dendritic arbor complexity”, the dendritic arbor complexity ([1]; cultures from Y433F^+/− mice) was “not Y433F^+/− mice” and the “Sholl analysis, Mean at distance from soma” value (“Sholl analysis, Mean” below) ([1]; distance from soma 25 µm) was 3.05. The “Sholl analysis, Mean” value ([1]; distance from soma 30 µm) was 2.75, the “Sholl analysis, Mean” value ([1]; distance from soma 35 µm) was 2.15 and the “Sholl analysis, Mean” value ([1]; distance from soma 40 µm) was 1.55. The “Sholl analysis, Mean” value ([1]; distance from soma 45 µm) was 1.35, the “Sholl analysis, Mean” value ([1]; distance from soma 50 µm) was 1.3 and the “Sholl analysis, Mean” value ([1]; distance from soma 55 µm) was 0.95. For the same molecule, the “Sholl analysis, Mean” value ([1]; distance from soma 60 µm) was 0.8, the “Sholl analysis, Mean” value ([1]; distance from soma 65 µm) was 0.75 and the “Sholl analysis, Mean” value ([1]; distance from soma 70 µm) was 0.7. For the same molecule, the “Sholl analysis, Mean” value ([1]; distance from soma 75 µm) was 0.55, the “Sholl analysis, Mean” value ([1]; distance from soma 80 µm) was 0.45 and the “Sholl analysis, Mean” value ([1]; distance from soma 85 µm) was 0.45. For the same molecule, the “Sholl analysis, Mean” value ([1]; distance from soma 90 µm) was 0.4, the “Sholl analysis, Mean” value ([1]; distance from soma 95 µm) was 0.65 and the “Sholl analysis, Mean” value ([1]; distance from soma 100 µm) was 0.55. For the same molecule, the “6h: Mean (Sholl analysis)” value ([1]; first 6h table (N as WT), distance from soma 10 µm) was 6, the “6h: Mean (Sholl analysis)” value ([1]; first 6h table (N as WT), distance from soma 15 µm) was 7.15 and the “6h: Mean (Sholl analysis)” value ([1]; first 6h table (N as WT), distance from soma 20 µm) was 7.85. The “6h: Mean (Sholl analysis)” value ([1]; first 6h table (N as WT), distance from soma 25 µm) was 6.65, the “6h: Mean (Sholl analysis)” value ([1]; first 6h table (N as WT), distance from soma 30 µm) was 5.65 and the “6h: Mean (Sholl analysis)” value ([1]; first 6h table (N as WT), distance from soma 35 µm) was 4.5. For the same molecule, the “6h: Mean (Sholl analysis)” value ([1]; first 6h table (N as WT), distance from soma 40 µm) was 3.6, the “6h: Mean (Sholl analysis)” value ([1]; first 6h table (N as WT), distance from soma 45 µm) was 2.75 and the “6h: Mean (Sholl analysis)” value ([1]; first 6h table (N as WT), distance from soma 50 µm) was 2.6. The “6h: Mean (Sholl analysis)” value ([1]; first 6h table (N as WT), distance from soma 55 µm) was 2.5, the “6h: Mean (Sholl analysis)” value ([1]; first 6h table (N as WT), distance from soma 60 µm) was 2.35 and the “6h: Mean (Sholl analysis)” value ([1]; first 6h table (N as WT), distance from soma 65 µm) was 1.75. The “6h: Mean (Sholl analysis)” value ([1]; first 6h table (N as WT), distance from soma 70 µm) was 1.7, the “6h: Mean (Sholl analysis)” value ([1]; first 6h table (N as WT), distance from soma 75 µm) was 1.35 and the “6h: Mean (Sholl analysis)” value ([1]; first 6h table (N as WT), distance from soma 80 µm) was 1.15. The “6h: Mean (Sholl analysis)” value ([1]; first 6h table (N as WT), distance from soma 85 µm) was 1.1, the “6h: Mean (Sholl analysis)” value ([1]; first 6h table (N as WT), distance from soma 90 µm) was 1.3 and the “6h: Mean (Sholl analysis)” value ([1]; first 6h table (N as WT), distance from soma 95 µm) was 1.05. For the same molecule, the “6h: Mean (Sholl analysis)” value ([1]; first 6h table (N as WT), distance from soma 100 µm) was 1.5, the “6h: Mean (Sholl analysis)” value ([1]; second 6h table (N as Y433F), distance from soma 10 µm) was 4.8 and the “6h: Mean (Sholl analysis)” value ([1]; second 6h table (N as Y433F), distance from soma 15 µm) was 4.05. The “6h: Mean (Sholl analysis)” value ([1]; second 6h table (N as Y433F), distance from soma 20 µm) was 3.8.
